Here are results for 3 molecules from US10201565B2, “Gas conditioning” (EndoSAT NV, priority 2010, dated 2019).

The test system of data set [1] is adhesion formation. To be noted: 60 min pneumoperitoneum, 15 mmHg, humidified, 37° C.; scored one week later; average of four sites; listed as pure CO2.
The test system of data set [2] is adhesion formation. As to the kind of experiment: open abdomen for 60 min with gas flow deep in the pelvis, adhesions. The format is in vivo. The settings on record: gas flow of 1 l/min deep in the pelvis; control group with a lesion only.
The test system of data set [3] is adhesion formation. To be noted: laparoscopic mouse model, background; cited from earlier work.
The conditions of data set [4]: cited from earlier work; for solubilities: unit inferred.
Data set [5] relates to human patients. As to the kind of experiment: clinical trials of laparoscopy with conditioned pneumoperitoneum. The settings on record: first trial, deep endometriosis surgery; trial group also 5 mg dexamethasone and hyalobarrier gel, humidification, cooling 30-32° C. The format is in vivo. How it is done:
In a further set of trials, human patients were treated operatively by laparoscopy using a pneumoperitoneum with 86% CO2, 10% of N2O and 4% of O2 in combination with full humidification and with a temperature maintained at 31° C. to 32° C. when entering the patient (conditioned group). Furthermore the peritoneal cavity was cooled to 30-32° C. using sprinkling of 2 ml/min of saline at room temperature and rinsing was performed using slightly heparinised saline. A comparison was made with a standard treatment, whereby a pneumoperitoneum with 100% CO2 was used (non-conditioned group). Flow rates were between 3 and 10 liter/min. In a first trial, patients were undergoing deep endometriosis surgery. The trial group received in addition 5 mg of dexamethasone and a hyalobarrier gel at the end of the procedure. […] A number of parameters were monitored such as postoperative pain, time to first flatus and time to first stools, and the CO2 resorbtion during pneumoperitoneum. […] In both trials CO2 resorbtion during surgery, postoperative pain assessed by VAS scales and pain killer intake and time to first flatus and time to first stools were monitored.
In both trials post operative pain was evaluated at 3 hours, 12 hours and daily for 4 days after surgery using a VAS scale (Visual Analog Pain Scale) and using the amount of pain killer intake. […]

Each structure is given as a SMILES string. ≈ marks a conversion by molar mass, not a printed value. Where “and” joins values, the source holds several entries; their conditions need not be identical. Equal entries are not always repeated.

Turning to `O=C=O` [CO2, carbon dioxide], in data set [1], the “quantitative adhesion score (proportion of lesion covered by adhesions)” value was 70±10% and 74±9% and 77±9%; the “total adhesion score (sum of extent, type, tenacity)” value was 30±4 and 31±4 and 32±4. Also, the “adhesions after 60 min open abdomen” value in data set [2] was “decrease of these adhesions”. Besides, the adhesion formation entry in data set [3] is reported as “increase adhesions five fold”. In data set [4], the solubility in water is 1.45 g/L (≈ 32.9 mM) and the solubilities is 1.45 g/L. Also, the “adhesion formation checked by repeat laparoscopy” value in data set [5] is on record as “severe adhesions”.

For `[N-]=[N+]=O` [N2O, nitrous oxide], in data set [4], the solubility in water is 1.5 g/L (≈ 34.1 mM) and the solubilities was 1.5 g/L.

For `O=O` [Oxygen, oxygen], in data set [4], the solubility in water is 0.0391 g/L (≈ 1.22 mM) and the solubilities was 0.0232 g/L.
